Assay results reported in publication PMC7024208, “In Silico and In Vitro Experimental Studies of New Dibenz[b,e]oxepin-11(6H)one O-(arylcarbamoyl)-oximes Designed as Potential Antimicrobial Agents” (Molecules, 2020).
Converted amounts (≈) assume the structure as drawn. Read-outs that look alike come from different tables or passages of the source.

How the values were obtained:
E. coli ATCC 25922 [1] = experiment: Qualitative antimicrobial screening, adapted disk diffusion; type: cell-based, Escherichia coli; design: zone of inhibition: dose or concentration left out as unconfirmed; conditions: for zone of inhibition at 5000 µg/mL (stock): ATCC25922, read-out: growth inhibition diameter; for zone of inhibition at 5000 µg/mL (stock) / growth inhibition diameter: E. coli ATCC 25922, adapted diffusion assay
Experimental: (§1) The antimicrobial activities of the synthesized compounds were determined against ATCC reference and clinical microbial strains, i.e., Bacillus subtilis ATCC 6633, Staphylococcus aureus ATCC 25923, Escherichia coli ATCC 25922, Klebsiella pneumoniae 350, Pseudomonas aeruginosa 1671 and Candida albicans ATCC 10231, using as positive controls the antibiotic ticarcillin and the antifungal agent fluconazole. Microbial suspensions of 1.5 × 10^8 CFU/mL corresponding to 0.5 McFarland density obtained from 15–18 h bacterial cultures developed on solid media were used in our experiments. The antimicrobial activity was tested on Mueller-Hinton Agar (MHA) medium, while a Yeast Peptone Glucose (YPG) medium was used in case of C. albicans. The obtained compounds were solubilized in DMSO and the starting stock solution was of 5000 μg/mL concentration. The qualitative screening was performed by an adapted disk diffusion method as previously reported.

B. subtilis ATCC 6633 [2] = experiment: as above; type: cell-based, Bacillus subtilis; design: zone of inhibition: dose or concentration left out as unconfirmed; conditions: for zone of inhibition at 5000 µg/mL (stock): ATCC6633, read-out: growth inhibition diameter; for zone of inhibition at 5000 µg/mL (stock) / growth inhibition diameter: B. subtilis ATCC 6633, adapted diffusion assay
Experimental: as §1

S. aureus ATCC 25923 [3] = experiment: as above; type: cell-based, Staphylococcus aureus; design: zone of inhibition: dose or concentration left out as unconfirmed; conditions: for zone of inhibition at 5000 µg/mL (stock): ATCC25923, read-out: growth inhibition diameter
Experimental: as §1

C. albicans ATCC 10231 [4] = experiment: as above; type: cell-based, Candida albicans; design: zone of inhibition: dose or concentration left out as unconfirmed; conditions: for zone of inhibition at 5000 µg/mL (stock): ATCC10231, read-out: growth inhibition diameter; for zone of inhibition at 5000 µg/mL (stock) / growth inhibition diameter: C. albicans ATCC 10231, adapted diffusion assay
Experimental: as §1

K. pneumoniae 1771 = experiment: as above; type: cell-based, Klebsiella pneumoniae; design: zone of inhibition: dose or concentration left out as unconfirmed; conditions: for zone of inhibition at 5000 µg/mL (stock): Klebsiella pneumoniae, K. pneumoniae 1771, adapted diffusion assay, read-out: growth inhibition diameter
P. aeruginosa ATCC 27853 = experiment: as above; type: cell-based; design: zone of inhibition: dose or concentration left out as unconfirmed; conditions: Pseudomonas aeruginosa; for zone of inhibition at 5000 µg/mL (stock): ATCC27853, P. aeruginosa ATCC 27853, adapted diffusion assay, read-out: growth inhibition diameter
[5] = Annexin V-FITC/propidium iodide apoptosis analysis by flow cytometry; type: cell-based; conditions: human, HCT8 cells, Annexin V-FITC/PI, read-out: viable cells (Q4)
Experimental: (§2) For the in vitro assessment of the cytotoxic effect, the HCT8 cells and the CellTiter Assay kit (Promega, Madison, WI, USA) and Annexin V-FITC Apoptosis Detection Kit I (BD Bioscience Pharmingen, Franklin Lakes, NJ, USA) were used. Briefly, for CellTiter Assay, 1 × 10^4 cells/well were plated in 96 well plate and 24 h after, were treated with the new compound at final concentration between 400 µg/mL–10 µg/mL. The viability was evaluated after 24 h by adding CellTiter aqueous solution and reading to spectrophotometer according to the manufacturer indications. The IC50 were calculated from the percent of viability reported to untreated cells using on line tools https://www.aatbio.com/tools/ic50-calculator. For Annexin V-FITC Apoptosis Detection Kit I, 5 × 10^5 cells were seeded in 3.5 cm diameter Petri dish and treated with 100 µg/mL compounds solution for 24 h. The total cells were resuspended in 100 µL of binding buffer, and stained with 5 µL Annexin V-FITC and 5 µL propidium iodide for 10 min in dark. At least 10,000 events from each sample were acquired using a flow cytometer (Beckman Coulter, Indianapolis, IN, USA). The percentage of cells affected by the treatment was determined by subtracting the percentage of apoptotic/necrotic cells in the untreated population from percentage of apoptotic cells in the treated population.

[6] = Cytotoxicity, CellTiter Assay; type: cell-based; conditions: human, HCT8 cells, 400–10 µg/mL tested
Experimental: as §2

E. coli ATCC 25922 [7] = experiment: MIC by liquid medium microdilution; type: cell-based; conditions: Escherichia coli
Experimental: as §1
(§3) The quantitative assay of the antimicrobial activity was performed by the liquid medium microdilution method, in 96 multi-well plates, in order to establish the minimal inhibitory concentration (MIC). In this purpose, serial two-fold dilutions of the compounds ranging between 5000 and 4.8 µg/mL were performed in a 200 µL volume of broth and each well was seeded with 50 µL of microbial inoculum. Sterility control (wells containing only culture medium) and culture controls (wells containing culture medium seeded with the microbial inoculum) were used. The influence of the DMSO solvent was also quantified in a series of wells containing DMSO [36], diluted accordingly with the dilution scheme used for the compounds and for the positive controls.

S. aureus ATCC 25923 [8] = experiment: MIC by liquid medium microdilution; type: cell-based; conditions: Staphylococcus aureus
Experimental: as §1, §3

S. aureus ATCC 25923 [9] = experiment: Antibiofilm activity (MBEC), micro-titer method on plastic inert substratum; type: cell-based, Staphylococcus aureus; conditions: S. aureus ATCC 25923 biofilm on plastic substratum
Experimental: (§4) The assessment of the new compounds influence on the microbial ability to colonize the plastic inert substratum was performed by the micro-titer method, following previously described protocols. The absorbance at 490 nm was measured with an LB 911 ELISA reader (Apollo, Berthold Technologies GmbH & Co. KG, Bad Wildbad, Germany). All biological experiments were performed in triplicates.

B. subtilis ATCC 6633 [10] = experiment: as above; type: cell-based, Bacillus subtilis; conditions: B. subtilis ATCC 6633 biofilm on plastic substratum
Experimental: as §4

C. albicans ATCC 10231 [11] = experiment: MIC by liquid medium microdilution; type: cell-based; conditions: Candida albicans
Experimental: as §1, §3

B. subtilis ATCC 6633 [12] = experiment: MIC by liquid medium microdilution; type: cell-based, Bacillus subtilis; conditions: B. subtilis ATCC 6633, 24 h at 37 °C
Experimental: as §1, §3

C. albicans ATCC 10231 [13] = experiment: Antibiofilm activity (MBEC), micro-titer method on plastic inert substratum; type: cell-based, Candida albicans; conditions: C. albicans ATCC 10231 biofilm on plastic substratum
Experimental: as §4

[14] = Staphylococcus aureus, S. aureus ATCC 25923, adapted diffusion assay
[15] = ATCC25922, E. coli ATCC 25922, 24 h at 37 °C, read-out: MIC
[16] = ATCC25923, S. aureus ATCC 25923, 24 h at 37 °C, read-out: MIC
[17] = ATCC10231, C. albicans ATCC 10231, 24 h at 37 °C, read-out: MIC

Structure (SMILES) | zone of inhibition at 5000 µg/mL (stock) (E. coli ATCC 25922 [1]; Escherichia coli) | zone of inhibition at 5000 µg/mL (stock) (B. subtilis ATCC 6633 [2]; Bacillus subtilis) | zone of inhibition at 5000 µg/mL (stock) (S. aureus ATCC 25923 [3]; [14]) | zone of inhibition at 5000 µg/mL (stock) (C. albicans ATCC 10231 [4]; Candida albicans) | zone of inhibition at 5000 µg/mL (stock) (K. pneumoniae 1771) | zone of inhibition at 5000 µg/mL (stock) (P. aeruginosa ATCC 27853) | viability at 24 h, 100 µg/mL [5] | IC50 at 24 h [6] | further results
Cc1ccc2c(c1)C(=NOC(=O)Nc1ccc(Cl)cc1Cl)c1ccccc1CO2 [Compound 7g, 2-Methyl-6,11-dihydro-dibenz[b,e]oxepin-11(6H)one O-(2,4-dichlorophenyl-carbamoyl)oxime] | 0 mm | 0 mm | 0 mm | 0 mm | 0 mm | 0 mm |  |  | 
O=C(Nc1cccc(C(F)(F)F)c1)ON=C1c2ccccc2COc2ccccc21 [Compound 7f, 6,11-Dihydrodibenz[b,e]oxepin-11(6H)one O-(3-trifluoromethylphenyl-carbamoyl)oxime] | 10 mm | 11 mm | 8 mm | 12 mm | 0 mm | 0 mm | 14.8% | 54.3 µg/mL (≈ 132 µM) | growth inhibition diameter (E. coli ATCC 25922 [1]): inhibited the microbial growth; growth inhibition diameter (B. subtilis ATCC 6633 [2]): inhibited the microbial growth; MIC (E. coli ATCC 25922 [7]; [15]): 78 µg/mL (≈ 189 µM); MIC (S. aureus ATCC 25923 [8]; [16]): 4.8 µg/mL (≈ 11.6 µM); growth inhibition diameter (S. aureus ATCC 25923 [3]; S. aureus ATCC 25923, adapted diffusion assay): inhibited the microbial growth; growth inhibition diameter (C. albicans ATCC 10231 [4]): inhibited the microbial growth; MBEC (S. aureus ATCC 25923 [9]): 39 µg/mL; MBEC (B. subtilis ATCC 6633 [10]): 39 µg/mL
CCc1ccc2c(c1)C(=NOC(=O)Nc1ccc(F)cc1)c1ccccc1CO2 [Compound 7i, 2-Ethyl-6,11-dihydro-dibenz[b,e]oxepin-11(6H)one O-(4-fluorophenyl-carbamoyl)oxime] | 0 mm | 0 mm | 0 mm | 0 mm | 0 mm | 0 mm |  |  | 
O=C(Nc1cccc(Cl)c1)ON=C1c2ccccc2COc2ccccc21 [Compound 7c, 6,11-Dihydrodibenz[b,e]oxepin-11(6H)one O-(3-chlorophenyl-carbamoyl)oxime] | 4 mm | 0 mm | 0 mm | 8 mm | 0 mm | 0 mm | 89.8% | 304 µg/mL (≈ 803 µM) | growth inhibition diameter (E. coli ATCC 25922 [1]): active against; MIC (C. albicans ATCC 10231 [11]; [17]): 1250 µg/mL (≈ 3300 µM); MIC (E. coli ATCC 25922 [7]; [15]): 1250 µg/mL (≈ 3300 µM); MIC (S. aureus ATCC 25923 [8]; [16]): > 5000 µg/mL; growth inhibition diameter (C. albicans ATCC 10231 [4]): active against; MIC (B. subtilis ATCC 6633 [12]; Bacillus subtilis, ATCC6633, 24 h, read-out: MIC): > 5000 µg/mL; MBEC (C. albicans ATCC 10231 [13]): 4.8 µg/mL
CCc1ccc2c(c1)C(=NOC(=O)Nc1ccc(Cl)cc1Cl)c1ccccc1CO2 [Compound 7j, 2-Ethyl-6,11-dihydro-dibenz[b,e]oxepin-11(6H)one O-(2,4-dichlorophenyl-carbamoyl)oxime] | 0 mm | 0 mm | 0 mm | 0 mm | 0 mm | 0 mm |  |  | 
O=C(Nc1ccc(Cl)cc1)ON=C1c2ccccc2COc2ccccc21 [Compound 7d, 6,11-Dihydrodibenz[b,e]oxepin-11(6H)one O-(4-chlorophenyl-carbamoyl)oxime] | 0 mm | 0 mm | 0 mm | 0 mm | 0 mm | 0 mm |  |  | 
CCc1ccc2c(c1)C(=NOC(=O)Nc1ccccc1)c1ccccc1CO2 [Compound 7h, 2-Ethyl-6,11-dihydro-dibenz[b,e]oxepin-11(6H)one O-(phenyl-carbamoyl)oxime] | 0 mm | 0 mm | 0 mm | 0 mm | 0 mm | 0 mm |  |  | 
OC(Cn1cncn1)(Cn1cncn1)c1ccc(F)cc1F [Fluconazole, fluconazole, reference compound] |  |  |  | 10 mm |  |  |  |  | MIC (C. albicans ATCC 10231 [11]; [17]): 4.8 µg/mL (≈ 15.7 µM); MBEC (C. albicans ATCC 10231 [13]): 39 µg/mL
O=C(Nc1ccc(Cl)cc1Cl)ON=C1c2ccccc2COc2ccccc21 [Compound 7e, 6,11-Dihydrodibenz[b,e]oxepin-11(6H)one O-(2,4-dichlorophenyl-carbamoyl)oxime] | 0 mm | 0 mm | 0 mm | 0 mm | 0 mm | 0 mm |  |  | 
O=C(Nc1ccc(F)cc1)ON=C1c2ccccc2COc2ccccc21 [Compound 7b, 6,11-Dihydrodibenz[b,e]oxepin-11(6H)one O-(4-fluorophenyl-carbamoyl)oxime] |  |  |  |  |  |  | 84.3% | 252 µg/mL (≈ 695 µM) | zone of inhibition (E. coli ATCC 25922 [1]; Escherichia coli, ATCC25922, read-out: growth inhibition diameter): 0 mm; growth inhibition diameter (B. subtilis ATCC 6633 [2]): active exclusively on B. subtilis; zone of inhibition (B. subtilis ATCC 6633 [2]; Bacillus subtilis, ATCC6633, read-out: growth inhibition diameter): 7 mm; MIC (C. albicans ATCC 10231 [11]; ATCC10231, 24 h): > 5000 µg/mL; MIC (E. coli ATCC 25922 [7]; ATCC25922, 24 h): > 5000 µg/mL; MIC (S. aureus ATCC 25923 [8]; ATCC25923, 24 h): > 5000 µg/mL; zone of inhibition (S. aureus ATCC 25923 [3]; Staphylococcus aureus, ATCC25923, read-out: growth inhibition diameter): 0 mm; zone of inhibition (C. albicans ATCC 10231 [4]; Candida albicans, ATCC10231, read-out: growth inhibition diameter): 0 mm; MIC (B. subtilis ATCC 6633 [12]): 4.8 µg/mL (≈ 13.2 µM); MIC (B. subtilis ATCC 6633 [12]; Bacillus subtilis, ATCC6633, 24 h): 4.8 to 39 µg/mL (≈ 13.2 to 108 µM); MBEC (S. aureus ATCC 25923 [9]): 19.5 µg/mL; zone of inhibition (K. pneumoniae 1771; Klebsiella pneumoniae, 1771, read-out: growth inhibition diameter): 0 mm; zone of inhibition (P. aeruginosa ATCC 27853; ATCC27853, read-out: growth inhibition diameter): 0 mm
